# pIC50: −log10 of the molar value. Where two headings read alike, the source gives them in different places.
# Columns and labels:
# gastric acid secretion = assay: Acid-secretion suppression (pyloric ligation); assay type: in vivo, Rats; settings: pyloric region ligated, drug to the duodenum, gastric juice after four hours, total acidity by titration; dose not given
# Procedure: Acid-secretion Suppression Rats were fasted for 24 hours and the abdomens of the rats were dissected under anesthesia with ether. The pyloric region was ligated and a drug was administered to the duodenum. After four hours, the stomach was removed and the gastric juice was collected to evaluate the acid-secretion suppresssing effects by measuring the total acidity of the gastric juice through titration.
# Helicobacter pylori = assay: Anti-Helicobacter-pylori action (agar plate dilution MIC); assay type: cell-based; settings: clinically isolated 10 bacterial strains, agar plate dilution method
# Procedure: Anti-Helicobacter-pylori Action
# Using clinically isolated 10 bacterial strains, the minimum inhibitory concentration (MIC) was measured according to the agar plate dilution method.
# [1] = test system: ethanol ulcer in the gland gastric region; assay: Ethanol ulcer; assay type: in vivo; settings: rats fasted 24 hours, drug oral, 99.5% ethanol 1 ml/rat after one hour, size of ulcer one hour later; dose not given
# Procedure: Ethanol Ulcer Rats were fasted for 24 hours and orally administered with a drug. After one hour, 99.5% ethanol (1 ml/rat) was fed through oral administration. After one hour of ethanol administration, the abdomens of the rats were dissected and the size of ulcer in the gland gastric region was measured for each rat.
# H/K-ATPase = H/K-ATPase (Oryctolagus cuniculus, UniProt P27112); assay: H/K-ATPase inhibition; assay type: biochemical; settings: pH 7.4, H/K-ATPase from rabbit gastric mucous membrane
# Sequence of H/K-ATPase (P27112 whole entry): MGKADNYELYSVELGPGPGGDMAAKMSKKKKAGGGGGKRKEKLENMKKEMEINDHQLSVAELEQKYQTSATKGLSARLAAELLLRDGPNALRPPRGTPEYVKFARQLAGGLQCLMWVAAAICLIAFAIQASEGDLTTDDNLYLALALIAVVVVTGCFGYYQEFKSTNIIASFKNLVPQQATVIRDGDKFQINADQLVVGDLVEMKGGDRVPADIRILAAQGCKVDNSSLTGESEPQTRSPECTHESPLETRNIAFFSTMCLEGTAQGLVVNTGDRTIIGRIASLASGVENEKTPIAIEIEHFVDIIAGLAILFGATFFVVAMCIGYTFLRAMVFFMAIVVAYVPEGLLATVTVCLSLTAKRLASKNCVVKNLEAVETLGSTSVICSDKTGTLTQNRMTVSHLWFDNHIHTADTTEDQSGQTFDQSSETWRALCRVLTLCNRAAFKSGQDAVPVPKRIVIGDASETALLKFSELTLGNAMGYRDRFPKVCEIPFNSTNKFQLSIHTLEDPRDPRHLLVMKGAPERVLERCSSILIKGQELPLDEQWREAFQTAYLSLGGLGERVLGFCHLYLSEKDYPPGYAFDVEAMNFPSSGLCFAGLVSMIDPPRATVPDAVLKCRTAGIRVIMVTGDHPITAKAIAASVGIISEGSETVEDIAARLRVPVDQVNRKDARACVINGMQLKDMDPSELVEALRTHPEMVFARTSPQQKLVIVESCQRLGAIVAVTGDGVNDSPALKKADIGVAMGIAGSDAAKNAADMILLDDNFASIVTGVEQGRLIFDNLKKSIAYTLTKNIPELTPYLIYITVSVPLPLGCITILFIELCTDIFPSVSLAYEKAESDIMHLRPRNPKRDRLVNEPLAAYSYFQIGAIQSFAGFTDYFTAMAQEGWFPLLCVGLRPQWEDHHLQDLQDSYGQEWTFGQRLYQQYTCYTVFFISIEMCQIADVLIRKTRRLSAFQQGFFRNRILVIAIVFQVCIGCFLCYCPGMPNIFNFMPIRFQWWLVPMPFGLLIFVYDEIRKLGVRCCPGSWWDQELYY
# Sequence of H/K-ATPase (P18597 whole entry partner): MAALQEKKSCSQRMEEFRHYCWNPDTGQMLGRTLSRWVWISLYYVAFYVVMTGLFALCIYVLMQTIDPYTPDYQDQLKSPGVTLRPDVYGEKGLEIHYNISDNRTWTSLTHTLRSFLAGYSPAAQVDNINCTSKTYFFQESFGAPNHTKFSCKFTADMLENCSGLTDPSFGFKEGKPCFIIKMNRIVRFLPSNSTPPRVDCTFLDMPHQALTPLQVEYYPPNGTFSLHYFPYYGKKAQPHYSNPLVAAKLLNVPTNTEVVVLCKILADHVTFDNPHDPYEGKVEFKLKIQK
# Procedure: H/K-ATPase Inhibition The inhibitory effect was measured under pH 7.4, by using H/K-ATPase isolated and purified from the rabbit gastric mucous membrane.
# rat red blood cell = assay: Hemolytic action; assay type: cell-based; settings: 10% rat red blood cell stock, 1% DMSO containing saline, 30 minutes at 37° C., absorbance 540 nm
# Procedure: Hemolytic Action […] After incubation for 30 minutes at, 37° C., the mixture was centrifugally separated and the supernatant was obtained. The absorbance (540 nm) of the supernatant was measured. The hemolysis ratio was calculated.
# [2] = Helicobacter pylori, read-out: MIC
MIC (Helicobacter pylori) [µg/mL],pIC50 (H/K-ATPase),MIC (Helicobacter pylori; [2]) [µg/mL],Structure (SMILES),Suppression (gastric acid secretion) [%],Suppression [1] [%],HC50 (rat red blood cell) [µg/mL]
25 to 50,,,"NCCCCCN(c1ccccc1NCCOc1ccc(Cl)cc1)S(=O)(=O)c1ccc(Cl)cc1 [Example 13, N-(5-Aminopenthyl)-N-(4-chlorobenzenesulfonyl)-N′-[2-(4-chlorophenoxy)ethyl]-o-phenylenediamine]",82,,
,,,O=S(=O)(c1ccc(Cl)cc1)N(CCC1CCCCN1)c1cccnc1NCCNc1ccc(Cl)cc1 (stereo not shown) [Example 95],90,99,
,5.68,,"CCCCCCCCS(=O)(=O)N(CCOCCN)c1ccccc1NCCOc1ccc(Cl)cc1 [Example 26, N-[2-(2-Amino)ethoxyethyl]-N-(1-octanesulfonyl)-N′-[2-(4-chlorophenoxy)ethyl]-o-phenylenediamine]",82,98,
,3.89,,"CCCS(=O)(=O)N(CCOCCN)c1ccccc1NCCOc1ccc(Cl)cc1 [Example 24, N-[2-(2-Amino)ethoxyethyl]-N-(1-propanesulfonyl)-N′-[2-(4-chlorophenoxy)ethyl]-o-phenylenediamine]",,,99.6
,,,"NCCOCCN(c1ccccc1NCCOc1ccc(Cl)cc1)S(=O)(=O)c1ccc(Br)cc1 [Example 43, N-[2-(2-Amino)ethoxyethyl]-N-(4-bromobenzenesulfonyl)-N′-[2-(4-chlorophenoxy)ethyl]-o-phenylenediamine]",80,78,>100
,,,"NCCOCCN(c1ccccc1N1CCCN(c2ccc(Cl)cc2)CC1)S(=O)(=O)c1ccc(Cl)cc1 [Example 134, 2-[4-(4-Chlorophenyl)-1-homopiperazino]-1-[N-[2-(2-aminoethoxy)ethyl]-N-(4-chlorobenzenesulfonyl)]aminobenzene]",87,98,
,,,"NCCOCCN(c1ccccc1N1CCN(c2ccc(Cl)cc2)CC1)S(=O)(=O)c1ccc(Cl)cc1 [Example 131, 2-[4-(4-Chlorophenyl)-1-piperazino]-1-[N-[2-(2-aminoethoxy)ethyl]-N-(4-chlorobenzenesulfonyl)]aminobenzene]",89,,
,4.31,50 to 100,CCCCS(=O)(=O)N(CCOCCN)c1ccccc1NCCOc1ccc(Cl)cc1 [Example 21],76,99,71.1
,5.96,6.25 to 12.5,"NCCOCCN(c1ccccc1N(CCOc1ccc(Cl)cc1)Cc1ccccc1)S(=O)(=O)c1ccc(Cl)cc1 [Example 70, N-[2-(2-Amino)ethoxyethyl]-N-(4-chlorobenzenesulfonyl)-N′-benzyl-N′-[2-(4-chlorophenoxy)ethyl]-o-phenylenediamine]",81,96,
,,,CN(CCOc1ccc(Cl)cc1)c1ccccc1N(CCOCCN)S(=O)(=O)c1ccc(Cl)cc1 [Example 68],83,94,
,,,"NCCOCCN(c1ccccc1NCCOc1ccc(Cl)cc1)S(=O)(=O)c1ccc(I)cc1 [Example 45, N-[2-(2-Amino)ethoxyethyl]-N-(4-iodobenzenesulfonyl)-N′-[2-(4-chlorophenoxy)ethyl]-o-phenylenediamine]",80,,
,,,"NCCOCCN(c1ccccc1NCCCOc1ccc(Cl)cc1)S(=O)(=O)c1ccc(Cl)cc1 [Example 61, N-[2-(2-Amino)ethoxyethyl]-N-(4-chlorobenzenesulfonyl)-N′-[3-(4-chlorophenoxy)propyl]-o-phenylenediamine]",87,,
,3.85,,"CC(C)S(=O)(=O)N(CCOCCN)c1ccccc1NCCOc1ccc(Cl)cc1 [Example 25, N-[2-(2-Amino)ethoxyethyl]-N-(2-propanesulfonyl)-N′-[2-(4-chlorophenoxy)ethyl]-o-phenylenediamine]",,,120
,5.70,,"NCCOCCN(c1cccc2c1N(CCOc1ccc(Cl)cc1)CCC2)S(=O)(=O)c1ccc(Cl)cc1 [Example 140, 8-[N-[2-(2-Aminoethoxy)ethyl]-N-(4-chlorobenzenesulfonyl)]amino-1-[2-(4-chlorophenoxy)ethyl]-1,2,3,4-tetrahydroquinone]",85,94,
,,,"NCCOCCN(c1cccnc1N1CCN(c2ccc(Cl)cc2)CC1)S(=O)(=O)c1ccc(Cl)cc1 [Example 137, 2-[4-(4-Chlorophenyl)-1-piperazino]-3-[N-[2-(2-aminoethoxy)ethyl]-N-(4-chlorobenzenesulfonyl)]aminopyridine]",76,,

# — US6403607B1, “Sulfonamide derivatives and drugs containing the same as the active ingredient” (priority 1998, dated 2002)
